This is an account of results in US20080175891A1, “METHODS, COMPOSITIONS, AND FORMULATIONS FOR PREVENTING OR REDUCING ADVERSE EFFECTS IN A PATIENT” (priority 2007, published 2008).

In data set [1] the test system is arrhythmias. As to the kind of experiment: Prophylactic effect of AICA riboside treatment on arrhythmias (Examples VI and XIV). It is filed as in vivo. The text has this:
Another disease caused by or able to cause restricted blood flow is myocardial arrhythmia. Although restricted blood flow can initiate the onset of arrhythmia, the precise cause is unknown. However, it is known that lipid peroxidation by oxygen radicals is arrhythmogenic. Since the latter are produced by granulocytes, the inhibition of granulocyte superoxide production by the method of the invention can be expected to control arrhythmia. In addition, mast cells are in higher concentration in areas of atherosclerosis. Suppression of their activation might reduce the release of other mediators of arrhythmias. Adenosine also has direct anti-arrhythmic effects on myocytes. […] Rapid firing of cells during arrhythmia causes increased net ATP catabolism and adenosine release.

Data set [2] concerns pentylene tetrazol-induced seizures. As to the kind of experiment: Pentylene tetrazol-induced seizures (Example XIII). The following applies: in vivo. The text has this: The adenosine released from neuronal cells when they are stimulated and break down ATP during seizure (epileptic) activity normally will feedback and suppress this seizure (epileptic) activity.
Data set [3] has as its system patients with adenylosuccinase deficiency (autism). The data set is described as follows: Therapeutic trials in patients with adenylosuccinase deficiency (autism) (Example X). In kind it is in vivo, human. As to conditions: oral. Here is the method: Conditions potentially associated with chronic low adenosine may also be treated by compounds of the invention. These pathologic states include autism, insomnia, cerebral palsy, schizophrenia, and other neuropsychiatric symptoms. It is anticipated that doses ranging from 0.1 mg/kg/day up to about 200 mg/kg/day will be beneficial.

The test system of data set [4] is mast cells. As to the kind of experiment: Mast cell activation / degranulation. In kind it is cell-based. The text has this:
As discussed in B. Benacerra and A. Unanue in Textbook of Immunology (Williams & Williams Baltimore/London, 1979), a key to suppressing allergic responses is to prevent the release of pharmacologically active substances by mast cells. Mast cells are large basophilic staining cells with extensive granules that contain substances, such as histamines, that are liberated by the mast cell during an allergic reaction and are required to support the allergic response. The release of these pharmacologically active substances present in mast cells is termed “degranulation.” Thus, chemicals that prevent degranulation should have a beneficial effect on reducing the severity of the allergic response. […] Mast cell activation also causes the release of prostaglandins and leukotrienses (non-preformed mediators) such as slow reactive substance of anaphylaxis.

The conditions of data set [5]: human, in vivo. The text has this: Applicant also discovered that lower doses of AICA riboside were needed to achieve the desired blood concentration levels in anesthetized patients than in non-anesthetized patients. It appears that the dose needed in anesthetized patients may be about 20-50% less than the dose needed in non-anesthetized patients. Thus, a preferred dosage of AICA riboside (or prodrug) in a non-anesthetized patient or a patient anesthetized for a short time is larger than the preferred dosage for an anesthetized patient. Accordingly, dosages of from about 0.075 mg/kg/min to about 0.30 mg/kg/min are preferred in such cases, more preferably between about 0.10 mg/kg/min and about 0.15 mg/kg/min, and most preferably about 0.125 mg/kg/min.

Data set [6] concerns seizures. As to conditions: experimental animal model; cited from earlier work.
The subject of data set [7] is bronchospasm induced by antigen sensitization. The following applies: guinea pig; cited from earlier work.

As for `NC(=O)c1ncn([C@@H]2O[C@H](CO)[C@@H](O)[C@H]2O)c1N` [AICA riboside, 5-amino-1-β-D-ribofuranosyl-imidazole-4-carboxamide], in data set [1], the “number of premature ventricular depolarizations” value is listed as “decreased number” and the “number of ventricular tachycardia episodes” value is given as “decreased number”. Besides, in data set [2], the “incidence of pentylene tetrazol-induced seizures” value is listed as “decreased incidence” and the “latency to pentylene tetrazol-induced seizures” value is listed as “prolonged latency”. In data set [3] (5 mg/kg/day increased to 2×10 mg/kg/day), the “clinical or biochemical side effects” value is listed as “No clinical or biochemical side effects were observed”. For the same molecule, the “behaviour during therapy as described by the parent” value in data set [3] (5 mg/kg/day increased to 2×10 mg/kg/day, both patients) is “more pleasantly active and more easy to handle during therapy”. The clinical improvement entry in data set [3] (5 mg/kg/day increased to 2×5 and finally 2×10 mg/kg/day, two patients) is “clear-cut improvement in one of two patients”. For the same molecule, in data set [4], the mast cell activation result was “suppress mast cell activation” and the mast cell degranulation entry was “prevent mast cell degranulation”. Moreover, the “dose needed in anesthetized patients, less than in non-anesthetized patients” value in data set [5] is given as 20-50%. Also, the inhibition of seizures result in data set [6] is “inhibitor of seizures”. Also, the anti-allergic actions result in data set [7] is on record as “anti-allergic actions”.

Take `CC(=O)OC[C@H]1O[C@@H](c2nc(C(N)=O)c(N)[nH]2)[C@H](OC(C)=O)[C@@H]1OC(C)=O` [Compound No. 2, 5-Amino-(2,3,5-tri-O-acetyl-beta-D-ribofuranosyl)imidazole-4-carboxamide]: the melting point (usually the temperature, or range, at which the solid turns liquid) lay within 128 to 129 °C.

On to `Nc1c(C(=O)NCCCCCCNC(=O)c2ncn([C@@H]3O[C@H](CO)[C@@H](O)[C@H]3O)c2N)ncn1[C@@H]1O[C@H](CO)[C@@H](O)[C@H]1O` [Compound No. 68, N,N′-bis-(5-amino-1-β-D-ribofuranosylimidazole-4-carbonyl)-1,6-diaminohexane], for which the melting point lay in the range of 181 to 185 °C.

Take `NC(=O)c1ncn([C@@H]2O[C@H](CO)[C@@H](O)[C@H]2O)n1` [ribavirin, 1-β-D-ribofuranosyl-1H-1,2,4-triazole-3-carboxamide]: in data set [4], the mast cell activation result is listed as “suppress mast cell activation” and the mast cell degranulation entry is given as “prevent mast cell degranulation”.
